Measured values as given in patent US20260042762A1 (Kymera Therapeutics, Inc., priority 2018, published 2026).

Molecular target: T1, MerTK (Homo sapiens, UniProt Q12866)
T1 construct: endogenous in cells; host or cells: Jurkat cells
T1 sequence (Q12866 21-999): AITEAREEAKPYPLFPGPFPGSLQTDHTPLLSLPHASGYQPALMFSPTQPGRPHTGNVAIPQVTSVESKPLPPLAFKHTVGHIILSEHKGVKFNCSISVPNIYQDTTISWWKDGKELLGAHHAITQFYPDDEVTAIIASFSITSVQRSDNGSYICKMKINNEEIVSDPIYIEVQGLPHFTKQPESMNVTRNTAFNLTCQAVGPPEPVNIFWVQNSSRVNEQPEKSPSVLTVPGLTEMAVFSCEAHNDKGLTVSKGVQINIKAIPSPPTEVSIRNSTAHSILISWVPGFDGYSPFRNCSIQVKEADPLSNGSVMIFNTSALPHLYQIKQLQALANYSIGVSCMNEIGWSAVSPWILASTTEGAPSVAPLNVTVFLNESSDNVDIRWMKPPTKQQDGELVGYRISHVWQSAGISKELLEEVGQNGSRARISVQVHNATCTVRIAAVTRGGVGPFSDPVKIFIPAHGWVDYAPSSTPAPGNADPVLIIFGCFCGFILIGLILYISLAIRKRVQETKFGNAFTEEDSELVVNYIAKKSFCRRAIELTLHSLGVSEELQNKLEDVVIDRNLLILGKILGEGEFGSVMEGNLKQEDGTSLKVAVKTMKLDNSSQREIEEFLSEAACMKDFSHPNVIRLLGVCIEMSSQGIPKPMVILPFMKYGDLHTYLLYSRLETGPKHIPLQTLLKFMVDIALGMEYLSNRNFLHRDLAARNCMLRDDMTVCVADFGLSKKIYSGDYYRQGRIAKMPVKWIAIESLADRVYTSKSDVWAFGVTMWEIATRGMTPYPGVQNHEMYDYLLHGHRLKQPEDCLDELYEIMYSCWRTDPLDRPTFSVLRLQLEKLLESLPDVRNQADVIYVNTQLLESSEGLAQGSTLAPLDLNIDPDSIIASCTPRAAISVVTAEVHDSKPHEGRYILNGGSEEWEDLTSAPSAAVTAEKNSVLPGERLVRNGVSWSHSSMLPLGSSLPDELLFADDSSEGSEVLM
Test: MerTk degradation in Jurkat cells (Western blot)
Format: cell-based
Conditions: 0.001-1 μM, 4 hour-incubation at 37° C.; for Dmax: Jurkat, 4 h, read-out: Jurkat Max % MerTK Degradation
In short: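 Jurkat cells treated 4 h at 37 °C with compound at 0.001-1 μM final. RIPA lysates quantified by BCA, then MerTK probed by Western blot against actin loading control with IR-dye secondaries and Odyssey imaging.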

SMILES | Dmax | Jurkat Max % MerTK Degradation
CCC[C@@H](C)Nc1ncc2c(n1)n([C@H]1CC[C@H](O)CC1)cc2[C@H]1CC[C@H](CN2CCN(CCCO[C@H]3CCN(Cc4ccc5c(c4)n(C)c(=O)n5C4CCC(=O)NC4=O)C3)CC2)CC1 (stereo partly drawn) [I-221, trans-3-(3-methyl-2-oxo-5-[[(3R)-3-[3-(4-[[(1r,4r)-4-[2-[(2S)-pentan-2-ylamino]-7-[4-hydroxycyclohexyl]pyrrolo[2,3-d]pyrimidin-5-yl]cyclohexyl]methyl]piperazin-1-y1)propoxy]pyrrolidin-1-yl]methyl]-1,3-benzodiazol-1-yl)piperidine-2,6-dione] | 20 to 50% | –
CN1CCN(Cc2ccc(-c3ccc(CO[C@H]4CCC[C@@H]4NC(=O)c4cc(-c5cnn(CCOCCOCCCc6ccc7c(c6)n(C)c(=O)n7C6CCC(=O)NC6=O)c5)cnc4N)cc3)cc2)CC1 (stereo partly drawn) [I-182, 2-Amino-5-(1-[2-(2-[3-[1-(2,6-dioxopiperidin-3-yl)-3-methyl-2-oxo-1,3-benzodiazol-5-yl]propoxy]ethoxy)ethyl]pyrazol-4-yl]-N-[(1S,2S)-2-([4-[(4-methylpiperazin-1-yl)methyl]-[1,1-biphenyl]-4-yl]methoxy)cyclopentyl]pyridine-3-carboxamide] | 20 to 50% | –
CCC[C@H](C)Nc1ncc2c(n1)n([C@H]1CC[C@H](O)CC1)cc2[C@H]1CC[C@@H](CN2CCN(CCCO[C@H]3CCN(Cc4ccc5c(c4)n(C)c(=O)n5C4CCC(=O)NC4=O)C3)CC2)CC1 (stereo partly drawn) [I-220, 3-(3-methyl-2-oxo-5-[[(3S)-3-[3-(4-[[4-[2-[(2S)-pentan-2-ylamino]-7-[trans-4-hydroxycyclohexyl]pyrrolo[2,3-d]pyrimidin-5-yl]cyclohexyl]methyl]piperazin-1-y1)propoxy]pyrrolidin-1-yl]methyl]-1,3-benzodiazol-1-y1)piperidine-2,6-dione] | > 50% | –
Cn1c(=O)n([C@H]2CCC(=O)NC2=O)c2ccc(COCCCN3CCN(Cc4ccc(-c5cn([C@H]6CC[C@H](O)CC6)c6nc(NCCC(F)(F)F)ncc56)cc4)CC3)cc21 [I-149, 3-[3-methyl-2-oxo-5-[(3-[4-[(4-[7-[trans-4-hydroxycyclohexy1]-2-[(3,3,3-trifluoropropyl)amino]pyrrolo[2,3-d]pyrimidin-5-yl]phenyl)methyl]piperazin-1-yl]propoxy)methyl]-1,3-benzodiazol-1-y1]piperidine-2,6-dione; formic acid] | > 50% | –
C[C@H](CC(F)(F)F)Nc1ncc2c(-c3ccc(CN4CCN(CCCO[C@H]5CCN(Cc6ccc7c(c6)n(C)c(=O)n7C6CCC(=O)NC6=O)C5)CC4)cc3)cn([C@H]3CC[C@H](O)CC3)c2n1 (stereo partly drawn) [I-210, 3-(3-methyl-2-oxo-5-[[(3R)-3-(3-[4-[(4-[7-[trans-4-hydroxycyclohexy1]-2-[[(2S)-4,4,4-trifluorobutan-2-yl]amino]pyrrolo[2,3-d]pyrimidin-5-yl]phenyl)methyl]piperazin-1-yl]propoxy)pyrrolidin-1-yl]methyl]-1,3-benzodiazol-1-yl)piperidine-2,6-dione] | – | C (maximum MerTK degradation less than or equal to 20% (≤20%))
COc1cc(Nc2nc(N[C@H]3CCCC[C@H]3N)n3ccnc3c2C(N)=O)cc(OCCOCCOCCOCCNc2cccc3c2C(=O)N(C2CCC(=O)NC2=O)C3=O)c1 (some centres unmarked) [I-232] | < 20% | –
Cn1c(=O)n([C@H]2CCC(=O)NC2=O)c2ccc(CCCOCCN3CCC(N4CCN(Cc5ccc(-c6cn([C@H]7CC[C@H](O)CC7)c7nc(NCCC(F)(F)F)ncc67)cc5)CC4)CC3)cc21 [I-94, 3-(3-methyl-2-oxo-5-[3-[2-(4-[4-[(4-[7-[trans-4-hydroxycyclohexyl]-2-[(3,3,3-trifluoropropyl)amino]-7H-pyrrolo[2,3-d]pyrimidin-5-yl]phenyl)methyl]piperazin-1-yl]piperidin-1-yl)ethoxy]propyl]-2,3-dihydro-1H-1,3-benzodiazol-1-y1)piperidine-2,6-dione; formic acid] | > 50% | –
CCC[C@H](C)Nc1ncc2c(n1)n([C@H]1CC[C@H](O)CC1)cc2[C@H]1CC[C@@H](CN2CCN(CCCOC3CCN(Cc4ccc5c(c4)n(C)c(=O)n5C4CCC(=O)NC4=O)CC3)CC2)CC1 (some centres unmarked) [I-207] | > 50% | –
